Data on two substances can be found in patent publication US20150306178A1, “METHODS AND COMPOSITIONS FOR TREATING AND PREVENTING TINNITUS” (Auris Medical AG, priority 2014, published 2015).

“And” between values parts separate entries of the source, which are not always exact repeats. Identical values can stand only once. Where no end group is shown, it is not given here. [ ]: non-standard residue; d: D form.

Assay [1] has as its system models of cochlear insult. Conditions: acute noise trauma, acute labyrinthitis, aminoglycoside ototoxicity, bacterial infection, cochlear ischemia, cochlear implantation trauma; cited from earlier work.
In assay [2] the test system is ASNHL-related tinnitus. The assay can be described thus: Double-blind, randomized, placebo-controlled phase II study of AM-111 in ASNHL and associated tinnitus. It counts as in vivo, human. To be noted: for Number of Subjects with Tinnitus/Number of Subjects with Observation (%): Safety Population; for Complete ASNHL-Related Tinnitus Remission in the Treated Ear, Frequency (%): time point Overall, mITT. Here is the method:
A double-blind, randomized, placebo-controlled phase II study was conducted to evaluate the efficacy and safety of AM-111 in treating ASNHL and associated tinnitus. Eligible participants were aged 18 to 60 years and suffered from ASNHL (unilateral idiopathic sudden sensorineural hearing loss (ISSNHL), uni- or bilateral acute acoustic trauma (AAT)) with hearing loss of at least 30 dB and onset not more than 48 hours previously. The hearing loss was determined against a reference value: mean hearing threshold at the 3 most affected contiguous test frequencies (pure tone average, PTA) less corresponding mean hearing threshold of the contralateral ear (Plontke et al., 2007). In case of previously asymmetric hearing or bilateral ASNHL, thresholds from a previous audiogram or ISO-7029; 2000 norm values served as reference. The PTA frequencies determined at baseline remained fixed for all evaluations.
Exclusion criteria included history of Meniere's disease, autoimmune or radiation induced hearing […] loss, endolymphatic hydrops or fluctuating hearing loss, suspected perilymph fistula, membrane rupture or retrocochlear lesion, barotrauma, air-bone gap >20 dB in 3 contiguous frequencies, previous ASNHL incident within the past 6 weeks, and acute or chronic otitis media or otitis externa. Women who were breast feeding, pregnant or who planned a pregnancy during the study, or women of childbearing potential who declared being unwilling or unable to practice an effective method of […] contraception were excluded. Written informed consent was obtained from each patient prior to the performance of any study-specific procedures.
At baseline (Day 0), study participants were randomized to receive AM-111 (0.4 or 2.0 mg/mL) or placebo at a 2:1 ratio. The study consisted of a baseline assessment and 4 follow-up visits on Days 3, 7, 30, and 90. Baseline assessments included a general physical examination, vital signs, and a urine pregnancy test for women of childbearing age. At each study visit pure tone hearing thresholds, speech discrimination at 60 and 80 dB, and subjective tinnitus loudness were determined. Those patients reporting tinnitus were asked to rate its loudness “right now” on a numerical scale ranging from 0 (no tinnitus) to 10 (extremely loud).
Approximately 0.25 mL of the study drug was administered on Day 0 by intratympanic (i.t.) injection under local anesthesia through a small myringotomy with the patient's head placed in a position tilted 45° towards the unaffected ear. Patients remained in their reclined or supine position for approximately 30 minutes to allow for diffusion of the active substance into the cochlea. In case of bilateral AAT, only the worst affected ear was treated. Subjects whose PTA recovered <10 dB from baseline to Day 7 were given the option to receive oral prednisolone 50 mg (Ratiopharm, Ulm, Germany) b.i.d. for 5 days.
The sample size was determined based on an expected effect size of 0.6, a two-sided type I error rate of 5% and a statistical power of 80%.
Efficacy analyses were primarily performed on a modified “Intention to treat” (mITT) analysis set (treated patients with PTA measured on Day 3±1 or Day 7+4 days at most) and secondarily on the “Per Protocol” (PP) analysis set. The “Safety Population” analysis set included all patients who received an injection of the study medication. Random imputation was performed for missing PTA values at Days 7 and 30, and missing speech discrimination score (SDS) values at Day 7 based on the preceding value and the mean change observed in the respective treatment group (mITT set).
For continuous efficacy endpoints, analysis of covariance (ANCOVA) models were used including treatment group and initial frequency range as class effects, and baseline values of the respective endpoint as covariate. For the complete recovery rate, a logistic regression model was applied including treatment, initial frequency range, and baseline hearing loss as predictor variables. […]

Assay [3] relates to c-Jun/JNK complex. Conditions: in vitro and in intact cells; Holzberg et al. 2003; cited from earlier work.

Take “AM-111: 31-amino acid cell-permeable peptide (SEQ ID NO: 2, all-D), islet-brain 1 effector domain fused to TAT, formulated in a biocompatible hyaluronic acid gel ([dD][dQ][dS][dR][dP][dV][dQ][dP][dF][dL][dN][dL][dT][dT][dP][dR][dK][dP][dR][dP][dP][dR][dR][dR][dQ][dR][dR][dK][dK][dR]G)”: the “Otoprotection in models of cochlear insult” value in assay [1] is on record as “otoprotective”. Also, the “Number of Subjects with Tinnitus/Number of Subjects with Observation (%)” value (from here on “Number of Subjects with Tinnitus/Number … (%)”) was 53/56 (94.6) % in assay [2] (AM-111 0.4 mg/mL single i.t. injection, Day 0, after study drug, 53/56 subjects with ASNHL-related tinnitus); 51/56 (91.1) % in assay [2] (AM-111 0.4 mg/mL single i.t. injection, Day 3, 51/56 subjects); 42/55 (76.4) % in assay [2] (AM-111 0.4 mg/mL single i.t. injection, Day 7, 42/55 subjects); 26/55 (47.3) % in assay [2] (AM-111 0.4 mg/mL single i.t. injection, Day 30, 26/55 subjects); 38.0% and 19/50 (38.0) % in assay [2] (AM-111 0.4 mg/mL single i.t. injection, Day 90, 19/50 subjects, placebo 56.0%); 58/59 (98.3) % in assay [2] (AM-111 2.0 mg/mL single i.t. injection, Day 0, after study drug, 58/59 subjects). Also, the “Number of Subjects with Tinnitus/Number … (%)” value in assay [2] (AM-111 2.0 mg/mL single i.t. injection, Day 3, 59/59 subjects) was 59/59 (100) %; in assay [2] (AM-111 2.0 mg/mL single i.t. injection, Day 7, 51/58 subjects), 51/58 (87.9) %; in assay [2] (AM-111 2.0 mg/mL single i.t. injection, Day 30, 35/56 subjects) it was 35/56 (62.5) %; in assay [2] (AM-111 2.0 mg/mL single i.t. injection, Day 90, 28/54 subjects, placebo 56.0%) it was 51.9% and 28/54 (51.9) %; in assay [2] (AM-111 Total (0.4 and 2.0 mg/mL groups), Day 0, after study drug, 111/115 subjects) it was 111/115 (96.5) %; in assay [2] (AM-111 Total (0.4 and 2.0 mg/mL groups), Day 3, 110/115 subjects) it was 110/115 (95.7) %. The “Number of Subjects with Tinnitus/Number … (%)” value in assay [2] (AM-111 Total (0.4 and 2.0 mg/mL groups), Day 7, 93/113 subjects) is listed as 93/113 (82.3) %; in assay [2] (AM-111 Total (0.4 and 2.0 mg/mL groups), Day 30, 61/111 subjects) it was 61/111 (55.0) %; in assay [2] (AM-111 Total (0.4 and 2.0 mg/mL groups), Day 90, 47/104 subjects), 47/104 (45.2) %. Moreover, the “Complete ASNHL-Related Tinnitus Remission in the Treated Ear, Frequency (%)” value is on record as 35 (70.0%) in assay [2] (AM-111 0.4 mg/mL, All Subjects N = 50 (35 subjects), placebo 54.9%, p=0.151); 21 (84.0%) in assay [2] (AM-111 0.4 mg/mL, Mild to Moderate hearing loss subgroup N = 25 (21 subjects), placebo 78.6%, p=0.732); 31 (55.4%) in assay [2] (AM-111 2.0 mg/mL, All Subjects N = 56 (31 subjects), placebo 54.9%, p=1.000); 17 (63.0%) in assay [2] (AM-111 2.0 mg/mL, Mild to Moderate hearing loss subgroup N = 27 (17 subjects), placebo 78.6%, p=0.245). The “Complete tinnitus remission, AM-111 treatment groups versus placebo” value in assay [2] (subgroup mild to moderate hearing loss, Fisher's Exact Test) is listed as “no statistically significant differences”.
Consider “Ac-YGRKKRRQRRR-gaba-ILKQSMTLNLADPVGSLKPHLRAKN-NH2 (YGRKKRRQRRRXILKQSMTLNLADPVGSLKPHLRAKN; N-acetyl; GABA spacer; C-terminal amide) [SEQ ID NO: 45, cell-permeable 37-mer peptide of human c-Jun delta domain and HIV-TAT protein transduction domain fused by a GABA spacer]”, for which the “Disruption of c-Jun/JNK complex formation and subsequent phosphorylation and activation of c-Jun by JNK” value in assay [3] is “specifically disrupt c-Jun/JNK complex formation”.
